According to patent publication US20210388002A1, “DIMETHOXYBENZENE COMPOUND ANALOGS, METHODS FOR ANALYZING SAID COMPOUNDS AND STANDARD PRODUCTS OF SAID COMPOUNDS” (TAIHO PHARMACEUTICAL CO., LTD., priority 2018, published 2021):

Experiment: solubility in water and organic solvents
Assay type: physicochemical
Conditions: free form; water, highly water-soluble organic solvents, highly fat-soluble organic solvents

- solubility: easily soluble
Compound: COc1cc(C#Cc2nn([C@H]3CCNC3)c3ncnc(N)c23)cc(OC)c1 [Compound B, (S)-3-((3,5-dimethoxyphenyl)ethynyl)-1-(pyrrolidin-3-yl)-1H-pyrazolo[3,4-d]pyrimidin-4-amine]
